Assay [1] deals with stromal vascular (SV) cells from human adipose tissue. The experiment in a line: Percentage of cells differentiated into adipocytes (Oil Red O staining). It counts as cell-based. To be noted: Exp. 1, seeding density 4×10^4. The method, then: (§1) Experiment 1 was designed to determine optimal culturing conditions during differentiation of primary cultures of SV cells isolated from human adipose tissue. Specifically, the experiment was designed to determine how seeding density and thiazolidinedione (TZD; PPARγ-agonist BRL 49653) concentration influenced TG content (ug/10^6cells). SV cells were seeded at increasing densities (2-, 3-, or 4×10^4/cm^2) in differentiation media containing 0, 1, or 10 uM TZD (BRL 49653) in this 3×3 factorial design. All cultures received the same adipocyte media after 3 d of differentiation. The cultures were harvested on day 11-12 of differentiation and TG content and cell number were measured. Another set of cultures was stained with Oil Red O and counterstained with Mayer's hematoxylin to assess cellular differentiation potential (n=3 per treatment combination).
The presence of intracellular lipid was visualized by staining cultures with Oil Red O as previously described for human SV cultures (McIntosh et al. (1999) Int. J. Obesity 23:595-602). […] Counterstaining allows for quantifying the percentage of cells that have undergone differentiation (e.g., […]). […]

Assay [2] shares this test system. The experiment in a line: Triglyceride (TG) content of differentiating primary cultures of SV cells. It counts as cell-based. The conditions noted are these: for TG content, dose response: Exp. 3, 1, 3, 10, 30 uM; for More TG content than cultures treated with 10 uM trans-10, cis-12 CLA alone: Exp. 4. On the procedure:
Abdominal adipose tissue (Exp. 1-5) and thigh adipose tissue (Exp. 5b) were obtained from middle-aged females with body mass indexes <30.0 during liposuction or elective surgery. Subsequently, tissue was minced and enzymatically digested for 45 min in a Krebs-Ringer buffer containing 1 mg/mL collagenase (CLS-1, Worthington Biochemical Corp, Lakewood, N.J.), 15 mg/mL bovine serum albumin (BSA), 5 mM glucose and 100 mM HEPES (pH 7.4). Digestion was carried out at a 5 mL/1 g ratio (digestion solution: tissue mass). The digesta was then filtered through 200- and 60-micron mesh and pelleted at 600×g for 5 min. The SV cells were resuspended in a RBC lysis buffer for 10 min and then filtered and recentrifuged to remove contaminating […]. Cultures of SV cells were grown in proliferation medium containing 90% DME/Ham's F-10 (1:1, v/v), 10% (v/v) fetal bovine serum (FBS), 15 mM HEPES (pH 7.4), 60 U/mL penicillin, 60 U/mL streptomycin, and 25 ug/mL fungizone. Cultures were incubated at 37° C. in a humidified […]:CO2 (90:10%) atmosphere. SV cells were grown to 80% confluency and then cryopreserved in liquid nitrogen in aliquots (2×10^6 cells/mL).
Cryopreserved aliquots were subsequently thawed, seeded in T-150 flasks (e.g., 1 vial per 2 T-150 flasks), and grown in proliferation media until 80% confluent. At this time the cells were removed via trypsinization, seeded (3×10^4/cm^2, except for Exp. 1) in 24-well or 96-well (Exp. 5b) Falcon dishes, and allowed to attach for 24 h in proliferation medium. Following attachment, cultures were grown in differentiation medium for the next 3 d which contained DME/Ham's F-10 (1:1,v/v), 15 mM HEPES (pH 7.4), 33 uM biotin, 17 uM pantothenate, 100 nM human insulin, 1 uM dexamethasone (DEX), 60 U/mL penicillin, 60 U/mL streptomycin, 25 ug/mL fungizone, 0.25 mM isobutylmethylxanthine (IBMX), and TZD (Exp. 1 & 2=BRL 49653; Exp. 3-5=Zen Bio's proprietary reagent). Thereafter, cultures were exposed to adipocyte medium consisting of 90% DME/Ham's F-10 (1:1,v/v), 15 mM HEPES (pH 7.4), 3% FBS (v/v), 33 uM biotin, 17 uM pantothenate, 100 nM human insulin, 1 uM DEX, 60 U/mL penicillin, 60 U/mL streptomycin, and 25 ug/mL fungizone. Adipocyte media was replaced every 3 d. […] After 18 day in culture, the majority of the cells contained visual lipid droplets.
as §1
In Experiment 2 the impact of linoleic acid and the trans-10, cis-12 isomer of CLA on TG accumulation in these cells was examined. SV cells were seeded at a density of 3×10^4/cm^2 and continuously treated with either 10 uM linoleic acid, 100 uM linoleic acid, 10 uM trans-10, cis-12 CLA, or 100 uM trans-10, cis-12 CLA, and grown under our normal differentiation protocol. One set of control cultures contained only vehicle (BSA) and another contained vehicle plus TZD (BRL 49653). TG content and cell number were measured on day 11 of differentiation.
The objective of Experiment 3 was to evaluate the dose response of trans-10, cis-12 CLA, cis-9, trans-11 CLA, and linoleic acid on TG content of the cultures. […]

The test system of assay [3] is differentiated human adipocytes. Briefly: Lipolysis measurement (glycerol release) in day 21 differentiated human adipocytes. The conditions noted are these: 3 hrs.
For assay [4], the system named is cultures of thigh adipocytes. Briefly: Lipolysis assay (glycerol release), thigh adipocytes. It counts as cell-based, human. The conditions noted are these: Exp. 5b; 1 uM, 5 h, day 18, thigh. The method, then: (§2) Subsequently, tissue was minced and enzymatically digested for 45 min in a Krebs-Ringer buffer containing 1 mg/mL collagenase (CLS-1, Worthington Biochemical Corp, Lakewood, N.J.), 15 mg/mL bovine serum albumin (BSA), 5 mM glucose and 100 mM HEPES (pH 7.4). Digestion was carried out at a 5 mL/1 g ratio (digestion solution: tissue mass). The digesta was then filtered through 200- and 60-micron mesh and pelleted at 600×g for 5 min. The SV cells were resuspended in a RBC lysis buffer for 10 min and then filtered and recentrifuged to remove contaminating […]. […] SV cells were grown to 80% confluency and then cryopreserved in liquid nitrogen in aliquots (2×10^6 cells/mL). In Experiment 5b, basal lipolysis was measured on day 18 of differentiation after the cultures had been treated with fatty acids for 5 h. […] Lipolysis was determined by measuring free and esterified glycerol release into the media following acute (5 h) treatment. […] On day 17 of differentiation, cultures were grown in basal adipocyte media (adipocyte media minus insulin and DEX). […] A set of vehicle controls contained 0.1% DMSO. One hundred microliters of conditioned media was removed from each well, and lipolytic rate determined by quantifying the amount of free glycerol and esterified glycerol in each sample using Sigma's triglyceride kit (GPO-Trinder, Sigma Chemical Co.).

In assay [5] the test system is cultures of abdominal adipocytes. The experiment in a line: Lipolysis assay (glycerol release), abdominal adipocytes. It counts as cell-based, human. To be noted: Exp. 5b; 1 uM, 5 h, day 18, abdominal. On the procedure:
as §2

Assay [6] concerns stromal vascular (SV) cells from human adipose tissue. The experiment in a line: De novo lipogenesis (14C-glucose incorporation into cellular lipid). The conditions noted are these: Exp. 5a; 3, 10, 30 uM, day 12. It counts as cell-based. On the procedure:
Experiments 5a and 5b were designed to determine if the trans-10, cis-12 CLA-mediated reduction in TG content was due to decreased lipogenesis and/or increased lipolysis. In Experiment 5a (lipogenesis), SV cells were seeded at a density of 3×10^4/cm^2 and continuously treated with increasing concentrations (3, 10, or 30 uM) of either linoleic acid, cis-9, tran-11 CLA, or trans-10, cis-12 CLA. A set of control cultures received vehicle (BSA) plus TZD. All cultures received differentiation media (days 1-3), adipocyte media (days 4-9), and low-glucose (˜5 mM) adipocyte media (days 10-12) prior to measuring de novo lipogenesis. On day 12, ^14C-labeled glucose incorporation into the lipid fraction of the cultures was measured for 2 h and, following lipid extraction, the radioactivity in the lipid fraction was determined by scintillation counting. Time course data (not shown) indicated a linear increase in radiolabeled glucose incorporation into lipid over 2 h.
Incorporation of ^14C-glucose into cellular lipid was determined on day 12 of differentiation in cultures chronically treated with fatty acids or vehicle. Following the addition of fatty acids and low glucose (˜5 mM) medium to the cultures on day 12, 1.0 μCi [U-^14C]-glucose ([U-^14C]-D-glucose; SA ˜250 mCi/mmol, ICN, Costa Mesa, Calif.)/mL medium was added to the cultures for 2 h. Our time course study (data not shown) indicated a linear increase in radiolabeled glucose incorporation into lipid over a 2 h period. After 2 h, media containing unincorporated ^14C-glucose was immediately removed and the cultures were washed with 1 mL HBSS to remove unincorporated ^14C-glucose. An additional 1 mL of HBSS was added and, after vigorous tritaration, cells were transferred to glass vials. Five milliliters of a chloroform:methanol (2:1) solution was added to each vial and they were vortexed for 1 min. All samples were then centrifuged for 5 min at 1000×g to further separate the hydrophobic and hydrophilic phases. The lower hydrophobic phase was removed from the tubes and dried under nitrogen at 40° C. Five milliliters of scintillation cocktail (Scinti Verse, Fisher Scientific, Norcross, Ga.) was added to each sample, and the ^14C content was determined by liquid scintillation counting on a Beckman LS 6000 Scintillation Counter (Beckman Instruments, Palo Atlo, Calif.). […] The radioactivity in the lipid fraction from these cultures was subtracted from the total counts. Cell numbers were determined from parallel treatment groups in separate culture dishes at the time of radioisotope addition to the medium. Therefore, mean ^14C-glucose incorporation is expressed as cpm/10^6 cells.

Assay [7] concerns 3T3-L1 preadipocytes. The experiment in a line: Fatty acid composition of neutral and phospholipid fractions of treated cultures. It counts as cell-based, murine.
Assay [8] concerns 3T3-L1 preadipocytes. The experiment in a line: Morphological changes (apoptosis-like) in CLA-treated cultures. It counts as cell-based, murine. The conditions noted are these: LA supplementation of trans-10, cis-12 CLA-treated cultures.
The subject of assay [9] is PPARγ2. Briefly: PPARγ2 protein expression in 3T3-L1 preadipocytes. It counts as cell-based, murine.
The test system of assay [10] is 3T3-L1 preadipocytes. Briefly: Cell number of treated 3T3-L1 cultures. To be noted: data not shown. It counts as cell-based, murine.
For assay [11], the system named is aP2. Briefly: aP2 protein expression in 3T3-L1 preadipocytes. It counts as cell-based, murine. The conditions noted are these: after 6 d of treatment.
In assay [12] the test system is 3T3-L1 preadipocytes. Briefly: TG content of 3T3-L1 preadipocytes. It counts as cell-based, murine. The conditions noted are these: LA supplementation of CLA-treated cultures.

Where “and” joins values, the source holds several entries; their conditions need not be identical. Equal entries are not always repeated.

For `CN(CCOc1ccc(CC2SC(=O)NC2=O)cc1)c1ccccn1` (stereo not drawn) [BRL 49653], the “Percentage of cells that differentiated” value in assay [1] (1 uM TZD) was 50%; in [1] (10 uM TZD) it was 47%. The “TG content, fold greater than similarly seeded cultures without BRL 49653” value in assay [2] (Exp. 1, 10 uM, seeded at 4×10^4 cells/cm^2) was 10 fold.
For the molecule `Cn1c(=O)c2c(ncn2C)n(C)c1=O` [Caffeine], the “Lipolysis, fold increase over control” value in assay [3] (0.1 % (wt./volume)) was 2.4 fold and 4.2 fold.
On to `CC(C)NCC(O)c1ccc(O)c(O)c1` (stereo not drawn) [Isoproterenal], for which the results for the Stimulation of lipolysis in assay [4] and in [5] were approximately 1.5 fold and “approximately 2.5 fold”, respectively. In [3] (0.00002 % (wt./volume)), the “Lipolysis, fold increase over control” value is listed as 3.4 fold.
Take `Cn1c(=O)c2[nH]cnc2n(C)c1=O` [Theophylline]: the “Lipolysis, fold increase over control” value in [3] (0.01 % (wt./volume)) is on record as 0.8 fold; in assay [3] (0.05 % (wt./volume)), 1.9 fold; in assay [3] (0.1 % (wt./volume)), 3.1 fold.
Take `CCCCCC/C=C/C=C\CCCCCCCC(=O)O` [cis-9, trans-11 CLA]: the “TG content, dose response” value in assay [2] (day 11) was “increased in a dose dependent fashion”. Moreover, the “Incorporation of 14C-glucose into cellular lipid per 10^6 cells, dose response” value in [6] was “neither linoleic acid nor trans-9, cis-11 CLA influenced de novo lipogenesis”. The “Abundance in lipid fractions relative to trans-10, cis-12 isomer” value in assay [7] is listed as 1-2 fold. Besides, the “Incorporation into cellular lipid fractions” value in assay [7] (neutral and phospholipid fractions) was “incorporated into the neutral and phospholipid fractions”.
Regarding `CCCCC/C=C\C/C=C\CCCCCCCC(=O)O` [linoleic acid, 9 cis, 12 cis-octadecadienoic acid], in [8], the CLA-induced morphological changes result is listed as “inhibited the CLA-induced morphological changes in a dose-dependent manner”. Further, the “PPARγ2 protein levels, concurrent LA and trans-10, cis-12 CLA vs CLA alone” value in [9] (6 d) is on record as “increased PPARγ2 protein levels”. Also, the PPARγ2 protein expression result in [9] (after 6 d of treatment) is “decreased”. Besides, the “PPARγ2 protein expression compared to BSA controls” value in assay [9] (day 2 of differentiation) is “reduced PPARγ2 protein expression”. The Cell number entry in [10] is on record as “increased cell number”. In addition, in assay [11], the aP2 protein expression result is “decreased”. Besides, the “TG content vs other treatments / TZD treated vehicle controls” value in assay [2] (Exp. 2, 100 uM, continuous treatment, day 11) is on record as “highest TG content”. The “TG content, dose response” value in assay [2] (day 11) is on record as “increased in a dose dependent fashion”. Moreover, the “More TG content than cultures treated with 10 uM trans-10, cis-12 CLA alone” value in assay [2] (10 uM linoleic acid added to 10 uM trans-10, cis-12 CLA) was found to be 26%; in [2] (30 uM linoleic acid added to 10 uM trans-10, cis-12 CLA), 55%; in assay [2] (100 uM linoleic acid added to 10 uM trans-10, cis-12 CLA), 64%. For the same molecule, the “TG content, concurrent linoleic acid with trans-10, cis-12 CLA” value in assay [12] is given as “able to prevent the TG-lowering effects of trans-10, cis-12 CLA”. In addition, the “Incorporation of 14C-glucose into cellular lipid per 10^6 cells, dose response” value in [6] is listed as “neither linoleic acid nor trans-9, cis-11 CLA influenced de novo lipogenesis”.
